The values that follow come from US9102678B2, “Compounds and methods for inhibiting mitotic progression” (Millennium Pharmaceuticals, Inc., priority 2004, dated 2015).

A value given as a limit tells only on which side of the number the result lay.

T1 sequence (P97477 whole entry): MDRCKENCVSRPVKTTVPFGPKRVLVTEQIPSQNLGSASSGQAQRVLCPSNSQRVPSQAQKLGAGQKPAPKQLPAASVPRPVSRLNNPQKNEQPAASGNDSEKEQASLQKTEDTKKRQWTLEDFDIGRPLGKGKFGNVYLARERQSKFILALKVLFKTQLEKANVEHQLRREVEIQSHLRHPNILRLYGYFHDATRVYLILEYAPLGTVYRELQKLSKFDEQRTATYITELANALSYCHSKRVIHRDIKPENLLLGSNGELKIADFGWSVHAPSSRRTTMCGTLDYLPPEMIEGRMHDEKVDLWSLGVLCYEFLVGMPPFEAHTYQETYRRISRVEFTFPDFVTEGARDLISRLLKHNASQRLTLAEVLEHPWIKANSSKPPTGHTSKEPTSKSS

This assay addresses T1, recombinant murine Aurora A enzyme (Mus musculus, UniProt P97477).
T1 construct: hexahistidine (His6) (N); made in house; host or cells: insect cells, baculovirus (Bac-to-Bac, Invitrogen)
The assay is described as follows: Aurora A DELFIA Kinase Assay. It is filed as biochemical. Conditions: mouse Aurora A, 250 μM ATP; threshold less than or equal to 100 nM; read-out: IC50.
On to `NC1CCCN(C(=O)c2ccc(Nc3ncc4c(n3)-c3ccc(Cl)cc3C(c3c(F)cccc3F)=NC4)cc2)C1` (stereo not shown) [Compound I-221], for which the IC50 is at most 100 nM.

`COc1cccc(F)c1C1=NCc2cnc(Nc3ccc(C(=O)N(C)CCCN)cc3)nc2-c2ccc(Cl)cc21` [Compound I-264, N-(3-aminopropyl)-4-{[9-chloro-7-(2-fluoro-6-methoxyphenyl)-5H-pyrimido[5,4-d][2]benzazepin-2-yl]amino}-N-methylbenzamide]: the IC50 is at most 100 nM.

For the compound `NC1CCN(C(=O)c2ccc(Nc3ncc4c(n3)-c3ccc(Cl)cc3C(c3ccccn3)=NC4)cc2)CC1` [Compound I-298, N-{4-[(4-aminopiperidin-1-yl)carbonyl]phenyl}-9-chloro-7-pyridin-2-yl-5H-pyrimido[5,4-d][2]benzazepin-2-amine], the 50% inhibitory concentration (IC50) is at most 100 nM.

Take `CNCCN(C)C(=O)c1ccc(Nc2ncc3c(n2)-c2ccc(Cl)cc2C(c2c(F)cccc2F)=NC3)cc1` [Compound I-246, 4-{[9-chloro-7-(2,6-difluorophenyl)-5H-pyrimido[5,4-d][2]benzazepin-2-yl]amino}-N-methyl-N-[2-(methylamino)ethyl]benzamide]: the IC50 was at most 100 nM.

As for `N=C(c1ccc(Nc2ncc3c(n2)-c2ccc(Cl)cc2C(c2c(F)cccc2F)=NC3)cc1)N1CCC(N)C1` (stereo not shown) [Compound I-284], the IC50 was at most 100 nM.

As for `O=C(O)c1ccc(Nc2ncc3c(n2)-c2ccc(Cl)cc2C(c2ncccc2F)=NC3)cc1` [Compound I-301, 4-{[9-chloro-7-(3-fluoropyridin-2-yl)-5H-pyrimido[5,4-d][2]benzazepin-2-yl]amino}benzoic acid], the IC50 was at most 100 nM.

Regarding `O=C(NC1CCNCC1)c1ccc(Nc2ncc3c(n2)-c2ccc(Cl)cc2C(c2ccccc2F)=NC3)cc1` [Compound I-16, 4-[9-Chloro-7-(2-fluoro-phenyl)-5H-benzo[c]pyrimido[4,5-e]azepin-2-ylamino]-N-piperidin-4-yl-benzamide], the IC50 is at most 100 nM.

Regarding `CNC1CCN(C(=O)c2ccc(Nc3ncc4c(n3)-c3ccc(Cl)cc3C(c3c(F)cccc3OC)=NC4)cc2)C1` (stereo not shown) [Compound I-199, {4-[9-Chloro-7-(2-fluoro-6-methoxy-phenyl)-5H-benzo[c]pyrimido[4,5-e]azepin-2-ylamino]-phenyl}-(3-methylamino-pyrrolidin-1-yl)-methanone], the IC50 was at most 100 nM.

Take `CNC1CCN(C(=O)c2ccc(Nc3ncc4c(n3)-c3ccc(Cl)cc3C(c3ccccc3C(F)(F)F)=NC4)cc2)CC1` [Compound I-288, 9-chloro-N-(4-{[4-(methylamino)piperidin-1-yl]carbonyl}phenyl)-7-[2-(trifluoromethyl)phenyl]-5H-pyrimido[5,4-d][2]benzazepin-2-amine]: the IC50 was at most 100 nM.

For the compound `CNC1CCN(C(=O)c2ccc(Nc3ncc4c(n3)-c3ccc(Cl)cc3C(c3ccccc3OC)=NC4)cc2)C1` (stereo not shown) [Compound I-332, 9-chloro-7-(2-methoxyphenyl)-N-(4-{[3-(methylamino)pyrrolidin-1-yl]carbonyl}phenyl)-5H-pyrimido[5,4-d][2]benzazepin-2-amine], the IC50 was at most 100 nM.

Regarding `O=C(O)c1ccc(Nc2ncc3c(n2)-c2ccc(Cl)cc2C(c2c(F)cccc2F)=NC3)cc1` [Compound I-135, 4-[9-Chloro-7-(2,6-difluoro-phenyl)-5H-benzo[c]pyrimido[4,5-e]azepin-2-ylamino]-benzoic acid], the IC50 was at most 100 nM.

Regarding `CNC1CCN(C(=O)c2ccc(Nc3ncc4c(n3)-c3ccc(Cl)cc3C(c3c(F)cccc3F)=NC4)cc2)CC1` [Compound I-220, 9-chloro-7-(2,6-difluorophenyl)-N-(4-{[4-(methylamino)piperidin-1-yl]carbonyl}phenyl)-5H-pyrimido[5,4-d][2]benzazepin-2-amine], the IC50 is at most 100 nM.

With `CNC1CN(C(=O)c2ccc(Nc3ncc4c(n3)-c3ccc(Cl)cc3C(c3c(F)cccc3OC)=NC4)cc2)C1` [Compound I-235, 9-chloro-7-(2-fluoro-6-methoxyphenyl)-N-(4-{[3-(methylamino)azetidin-1-yl]carbonyl}phenyl)-5H-pyrimido[5,4-d][2]benzazepin-2-amine], the IC50 was at most 100 nM.

Usually IC50 stands for the concentration that gives 50% inhibition.
